In patent publication EP2492354A1, “Method for identifying compounds useful in the treatment of photosensitive reflex epilepsy” (Institut National De La Recherche Agronomique (INRA), priority 2011, dated 2012):

Columns and labels:
[1] = system: Fepi; assay: Intermittent Light Stimulation (ILS) induced seizures in the photosensitive reflex epileptic chicken model; format: in vivo
Description: During 21 days, they were exposed to ILS (3 minutes) once a day.
Behavioural activities were observed and time recorded for each phase of the paroxysmal manifestation during controlled intermittent light stimulation: • T0: ILS starts • T1 (time in seconds): neck myoclonus starts • T2 (time in seconds): convulsive phase starts • T3 (time in seconds): convulsive phase ends
The first day they were tested for control and all had ILS induced seizures. […]
During the last 10 days, none of the animals was treated.
The influence of the treatment on the stimulus locked myoclonus and generalized convulsions of the photosensitive GRS was evaluated using generalized linear models implemented in the function glm of the software R, version 2.9.0. The number of seizures for each animal over a given phase of the experiment (with treatment and following treatment) was modeled using a binomial distribution, and linked to factors using the logit function. The delay for seizure initiation, the duration of the myoclonus and the duration of the convulsions were modeled using gamma distributions, and linked to the factors using the identity function. Sex was included as an additive co-factor in the analyses but not significant differences were found.

[2] = system: plasma proteins; settings: cited from earlier work
[3] = cited from earlier work

Q: Which anticonvulsant effect ([1]; chicken model of the invention) does the source give for `CC[C@@H](C(N)=O)N1CCCC1=O` [(S)-a-ethyl-2-oxo-1-pyrrolidine acetamide] here?
A: The anticonvulsant effect was “has an anticonvulsant effect”.

Q: And the “persistence of the effect after the injection period” value ([1]; last 10 days without treatment)?
A: The value was “the effect partially persisting few days after the injection period”.

Q: And the “seizure duration (on average)” value ([1]; treated (50, 100 or 200 mg/Kg) homozygous, placebo 16.2 s, p-value 1 e-08)?
A: The value was 10.7 s.

Q: And the “bound to plasma proteins” value [2]?
A: Its value is “less than 10%”.

Q: And the “dose range over which the pharmacokinetics are linear” value ([3]; in vivo)?
A: The value was 500 to 5000 mg.

Q: What about the “time to peak plasma concentrations” value ([3]; oral administration to fasted subjects) of the same compound?
A: The value was “one”.

Q: And the “decrease of Cmax by food” value ([3]; oral, with food)?
A: The value was 20%.

Q: What about the “delay of Tmax by food” value ([3]; oral, with food) of the same compound?
A: Its value is 1.5 h.

Q: What about the oral bioavailability ([3]; tablets) of the same compound?
A: The oral bioavailability was 100%.

Q: And the “time to steady state” value ([3]; twice-daily dosing)?
A: The value was 2 days.
